How the values were obtained:
[1] = biological target: Proteasome caspase-like activity (S26 protein from RPMI8226 cells) (Homo sapiens (Human), UniProt P28072); assay: Proteasome caspase-like activity inhibition (Z-Leu-Leu-Glu-AMC fluorogenic substrate, RPMI8226 cell extract); type: biochemical; conditions: S26 protein from RPMI8226 cell extract 2 ug/well, substrate 20 uM, 37° C., 90 minutes
Experimental: The abilities to inhibit the proteasome activity of the compounds described in the Examples of the present invention and boronic acid drugs were evaluated as follows.
RPMI8226 cells, which is a multiple myeloma cell line, were cultured and then separated by a centrifuge, and washed twice with phosphate buffered saline (PBS). 20 mM of a tris-HCl (pH 8.0) buffer solution was added to the washed cells, and the cells were disrupted by a homogenizer and centrifuged to obtain S26 protein from the supernatant. Suc-Leu-Leu-Val-Tyr-AMC, for a fluorogenic substrate for the chymotrypsin-like activity of the proteasome, and Z-Leu-Leu-Glu-AMC, for a fluorogenic substrate for the caspase-like activity, were purchased from Calbiochem, EMD Millipore and used. Into each well of a 96-well plate (opaque, black round bottom), 20 ul of the S26 protein (final RPMI8226 cell extract concentration: 2 ug/well), 10 ul of S26 proteasome inhibitor serially diluted from 10 uM (final DMSO concentration: 0.5%), and 20 ul of the fluorogenic substrate for the proteasome chymotrypsin-like or caspase-like activity (final concentration: 20 uM) were added and mixed and allowed to react in a 37° C. incubator for 90 minutes. The fluorescence of the fluorogenic substrate was measured by FlexStation II Fluorometer (Molecular Devices). The fluorescence inhibited by the compound diluted at each concentration was measured as the relative percentage value for the amount obtained from the treatment only with the S26 protein and the fluorogenic substrate. IC50 (inhibitory concentration 50) was expressed in terms of a concentration that inhibits 50% of the maximum fluorescence induced by the fluorogenic substrate.

[2] = biological target: Proteasome chymotrypsin-like activity (S26 protein from RPMI8226 cells) (Homo sapiens, UniProt P28074); type: biochemical; conditions: S26 protein from RPMI8226 cell extract 2 ug/well, substrate 20 uM, 37° C., 90 minutes; read-out: Proteasome chymotrypsin-like activity inhibition IC50
Proteasome chymotrypsin-like activity (S26 protein from RPMI8226 cells), sequence (P28074 60-263 limits assumed): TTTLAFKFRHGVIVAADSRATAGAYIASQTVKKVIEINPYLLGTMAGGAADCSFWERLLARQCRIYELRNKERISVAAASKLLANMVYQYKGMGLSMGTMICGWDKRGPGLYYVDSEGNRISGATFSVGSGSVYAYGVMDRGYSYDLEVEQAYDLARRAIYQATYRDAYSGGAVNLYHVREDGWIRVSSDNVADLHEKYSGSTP
Method in brief: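 Inhibition is measured in crude proteasome (S26) from RPMI8226 cells at 2 ug/well, using 20 uM substrate specific to each activity: Suc-LLVY-AMC for chymotrypsin-like, Z-LLE-AMC for caspase-like. Compounds span a dilution series from 10 uM.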

Proteasome caspase-like activity (S26 protein from RPMI8226 cells), sequence (P28072 whole entry): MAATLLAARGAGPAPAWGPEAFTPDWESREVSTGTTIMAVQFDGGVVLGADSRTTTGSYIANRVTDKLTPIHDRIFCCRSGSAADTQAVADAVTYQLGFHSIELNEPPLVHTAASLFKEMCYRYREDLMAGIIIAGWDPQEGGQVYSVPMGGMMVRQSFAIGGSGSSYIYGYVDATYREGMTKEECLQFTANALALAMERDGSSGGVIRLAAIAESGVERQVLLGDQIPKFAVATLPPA

SMILES	IC50 [1] [nM]	IC50 [2] [nM]
CC(C)C[C@H](NC(=O)C1(Cc2ccccc2)CC(COCc2nccc3ccccc23)=NO1)B(O)O (stereo partly drawn) [Example 49, ((1R)-1-(5-benzyl-3-((isoquinolin-1-ylmethoxy)methyl)-4,5-dihydroisoxazol-5-carboxamido)-3-methylbutyl)boronic acid]	> 1000	< 10
CC(C)C[C@H](NC(=O)C1(Cc2ccccc2)CC([C@H](C)NC(=O)c2nccc3ccccc23)=NO1)B(O)O (stereo partly drawn) [Example 145, ((1R)-1-(5-benzyl-3-((S)-1-(isoquinolin-1-carboxamido)ethyl)-4,5-dihydroisoxazol-5-carboxamido)-3-methylbutyl)boronic acid]	> 2500	< 10
CC(C)C[C@H](NC(=O)C1(Cc2ccccc2)CC(CNC(=O)c2cc(C(C)(C)C)nn2C(C)C)=NO1)B(O)O (stereo partly drawn) [Example 224, ((1R)-1-(5-benzyl-3-((3-(tert-butyl)-1-isopropyl-1H-pyrazol-5-carboxamido)methyl)-4,5-dihydroisoxazol-5-carboxamido)-3-methylbutyl)boronic acid]	> 2500	< 10
Cc1nc(C(=O)NCC2=NOC(Cc3ccccc3)(C(=O)N[C@@H](CC(C)C)B(O)O)C2)cs1 (stereo partly drawn) [Example 117, ((1R)-1-(5-benzyl-3-((2-methylthiazol-4-carboxamido)methyl)-4,5-dihydroisoxazol-5-carboxamido)-3-methylbutyl)boronic acid]	> 1000	< 10
CC(C)[C@H](NC(=O)C1(Cc2ccccc2)CC(CNC(=O)c2ccccc2)=NO1)B(O)O (stereo partly drawn) [Example 294, ((1R)-1-(3-(benzamidomethyl)-5-benzyl-4,5-dihydroisoxazol-5-carboxamido)-2-methylpropyl)boronic acid]	> 1000	< 10
COc1cccc(CC2(C(=O)N[C@@H](CC(C)C)B(O)O)CC(CNC(=O)c3nccc4ccccc34)=NO2)c1 (stereo partly drawn) [Example 100, ((1R)-1-(3-((isoquinolin-1-carboxamido)methyl)-5-(3-methoxybenzyl)-4,5-dihydroisoxazol-5-carboxamido)-3-methylbutyl)boronic acid]	> 1000	< 10
CC(C)C[C@H](NC(=O)C1(Cc2ccccc2)CC(CNC(=O)c2nn(C(C)C)c3ccccc23)=NO1)B(O)O (stereo partly drawn) [Example 202, ((1R)-1-(5-benzyl-3-((1-isopropyl-1H-indazol-3-carboxamido)methyl)-4,5-dihydroisoxazol-5-carboxamido)-3-methylbutyl)boronic acid]	> 500	< 10
CC(C)C[C@H](NC(=O)C1(Cc2ccccc2)CC(CNC(=O)c2nccc3ccccc23)=NO1)B(O)O (stereo partly drawn) [Example 84, ((1R)-1-(5-benzyl-3-((isoquinolin-1-carboxamido)methyl)-4,5-dihydroisoxazol-5-carboxamido)-3-methylbutyl)boronic acid]	> 1000	< 10
CC(C)C[C@H](NC(=O)C1(Cc2ccccc2F)CC(CNC(=O)c2nccc3ccccc23)=NO1)B(O)O (stereo partly drawn) [Example 170, ((1R)-1-(5-(2-fluorobenzyl)-3-((isoquinolin-1-carboxamido)methyl)-4,5-dihydroisoxazol-5-carboxamido)-3-methylbutyl)boronic acid]	> 1000	< 10
CC(C)C[C@H](NC(=O)C1(Cc2ccccc2)CC(CNC(=O)c2cccc(Cl)n2)=NO1)B(O)O (some centres unmarked) [Example 308]	> 500	< 10
CC(C)C[C@H](NC(=O)C1(Cc2ccccc2)CC(CNC(=O)c2ccccc2)=NO1)B(O)O (some centres unmarked) [Example 291]	> 250	< 10
CC(C)C[C@H](NC(=O)C1(Cc2ccc(F)cc2F)CC(CNC(=O)c2nccc3ccccc23)=NO1)B(O)O (stereo partly drawn) [Example 178, ((1R)-1-(5-(2,4-difluorobenzyl)-3-((isoquinolin-1-carboxamido)methyl)-4,5-dihydroisoxazol-5-carboxamido)-3-methylbutyl)boronic acid]	> 1000	< 10
CC(C)C[C@H](NC(=O)C1(Cc2ccccc2)CC(CNC(=O)c2ccc(C(F)(F)F)nc2)=NO1)B(O)O (stereo partly drawn) [Example 179, ((1R)-1-(5-benzyl-3-((6-(trifluoromethyl)nicotinamido)methyl)-4,5-dihydroisoxazol-5-carboxamido)-3-methylbutyl)boronic acid]	> 500	< 10

Continued, values first:

IC50 [1] [nM]	IC50 [2] [nM]	SMILES
> 500	< 10	CC(C)C[C@H](NC(=O)C1(Cc2ccccc2)CC(CNC(=O)c2cccc3c2ccn3C)=NO1)B(O)O (stereo partly drawn) [Example 138, ((1R)-1-(5-benzyl-3-((1-methyl-1H-indol-4-carboxamido)methyl)-4,5-dihydroisoxazol-5-carboxamido)-3-methylbutyl)boronic acid]
> 500	< 10	Cc1cccc(CC2(C(=O)N[C@@H](CC(C)C)B(O)O)CC(CNC(=O)c3nccc4ccccc34)=NO2)c1 (stereo partly drawn) [Example 125, ((1R)-1-(3-((isoquinolin-1-carboxamido)methyl)-5-(3-methylbenzyl)-4,5-dihydroisoxazol-5-carboxamido)-3-methylbutyl)boronic acid]
> 500	< 10	CC(C)C[C@H](NC(=O)C1(Cc2ccccc2)CC(CNS(=O)(=O)c2cc(Cl)ccc2Cl)=NO1)B(O)O (stereo partly drawn) [Example 143, ((1R)-1-(5-benzyl-3-(((2,5-dichlorophenyl)sulfonamido)methyl)-4,5-dihydroisoxazol-5-carboxamido)-3-methylbutyl)boronic acid]
> 500	< 10	CC(C)C[C@H](NC(=O)C1(Cc2ccccc2)CC(CNC(=O)c2cccc3c2cnn3C(C)C)=NO1)B(O)O (stereo partly drawn) [Example 205, ((1R)-1-(5-benzyl-3-((1-isopropyl-1H-indazol-4-carboxamido)methyl)-4,5-dihydroisoxazol-5-carboxamido)-3-methylbutyl)boronic acid]
> 250	< 10	CC(C)C[C@H](NC(=O)C1(Cc2ccccc2)CC(CNC(=O)c2cccn3ccnc23)=NO1)B(O)O (stereo partly drawn) [Example 132, ((1R)-1-(5-benzyl-3-((imidazo[1,2-a]pyridin-8-carboxamido)methyl)-4,5-dihydroisoxazol-5-carboxamido)-3-methylbutyl)boronic acid]
> 250	< 25	Cc1cnc(COCC2=NOC(Cc3ccccc3)(C(=O)N[C@@H](CC(C)C)B(O)O)C2)cn1 (stereo partly drawn) [Example 48, ((1R)-1-(5-benzyl-3-(((5-methylpyrazin-2-yl)methoxy)methyl)-4,5-dihydroisoxazol-5-carboxamido)-3-methylbutyl)boronic acid]
> 250	< 10	CC(C)C[C@H](NC(=O)C1CC(CNC(=O)c2cccc3ccccc23)=NO1)B(O)O (stereo partly drawn) [Example 64, ((1R)-1-(3-((1-naphthamido)methyl)-4,5-dihydroisoxazol-5-carboxamido)-3-methylbutyl)boronic acid]
> 100	< 25	CC(C)C[C@H](NC(=O)C1CC([C@H](CC(C)C)NC(=O)c2nccc3ccccc23)=NO1)B(O)O (stereo partly drawn) [Example 73, ((1R)-1-(3-((S)-1-(isoquinolin-1-carboxamido)-3-methylbutyl)-4,5-dihydroisoxazol-5-carboxamido)-3-methylbutyl)boronic acid]
> 500	< 100	CC(C)C[C@H](NC(=O)C1CC(CNC(=O)c2ccccc2)=NO1)B(O)O (stereo partly drawn) [Example 59, ((1R)-1-(3-(benzamidomethyl)-4,5-dihydroisoxazol-5-carboxamido)-3-methylbutyl)boronic acid]
> 500	< 10	CC(C)C[C@H](NC(=O)C1(Cc2ccccc2)CC(CNC(=O)c2cccc3c2cnn3C)=NO1)B(O)O (stereo partly drawn) [Example 204, ((1R)-1-(5-benzyl-3-((1-methyl-1H-indazol-4-carboxamido)methyl)-4,5-dihydroisoxazol-5-carboxamido)-3-methylbutyl)boronic acid]
> 500	< 10	COC[C@H](NC(=O)c1nccc2ccccc12)C1=NOC(Cc2ccccc2)(C(=O)N[C@@H](CC(C)C)B(O)O)C1 (stereo partly drawn) [Example 153, ((1R)-1-(5-benzyl-3-((R)-1-(isoquinolin-1-carboxamido)-2-methoxyethyl)-4,5-dihydroisoxazol-5-carboxamido)-3-methylbutyl)boronic acid]
> 500	< 10	CC(C)C[C@H](NC(=O)C1(Cc2ccccc2)CC(CNC(=O)c2ccnc3c2ccn3C(C)C)=NO1)B(O)O (stereo partly drawn) [Example 211, ((1R)-1-(5-benzyl-3-((1-isopropyl-1H-pyrrolo[2,3-b]pyridin-4-carboxamido)methyl)-4,5-dihydroisoxazol-5-carboxamido)-3-methylbutyl)boronic acid]

— US12570675B2, “Boronic acid compounds” (LG CHEM, LTD., priority 2020, dated 2026)
